{
  "source": "paper PMC6704710",
  "about": "“Preclinical evaluation of 3D185, a novel potent inhibitor of FGFR1/2/3 and CSF-1R, in FGFR-dependent and macrophage-dominant cancer models” (Journal of Experimental & Clinical Cancer Research : CR, 2019)",
  "assay_in_all_cases": "Eurofins kinase panel",
  "format_in_all_cases": "biochemical",
  "key": {"CK1δ(h)": {"target": "T1, CK1δ(h) (Homo sapiens, UniProt P48730)", "T1 construct": "purchased Eurofins (KinaseProfiler)", "T1 sequence (P48730 whole entry)": "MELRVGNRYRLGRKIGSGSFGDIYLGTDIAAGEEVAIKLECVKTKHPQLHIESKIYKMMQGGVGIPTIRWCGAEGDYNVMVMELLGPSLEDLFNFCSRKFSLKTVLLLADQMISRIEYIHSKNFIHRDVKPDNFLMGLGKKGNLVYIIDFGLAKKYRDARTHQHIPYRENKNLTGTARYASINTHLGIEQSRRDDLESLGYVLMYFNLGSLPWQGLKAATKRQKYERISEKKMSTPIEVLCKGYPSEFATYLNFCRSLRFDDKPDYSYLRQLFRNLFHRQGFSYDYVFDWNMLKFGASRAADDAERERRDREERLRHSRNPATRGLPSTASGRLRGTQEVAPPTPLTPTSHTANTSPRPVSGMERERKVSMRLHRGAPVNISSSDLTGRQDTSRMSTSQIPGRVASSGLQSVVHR", "conditions": "read-out: Inhibition rate (%)"}, "EphA4(h)": {"target": "T2, EphA4(h) (Homo sapiens, UniProt P54764)", "T2 construct": "purchased Eurofins (KinaseProfiler)", "T2 sequence (P54764 20-986)": "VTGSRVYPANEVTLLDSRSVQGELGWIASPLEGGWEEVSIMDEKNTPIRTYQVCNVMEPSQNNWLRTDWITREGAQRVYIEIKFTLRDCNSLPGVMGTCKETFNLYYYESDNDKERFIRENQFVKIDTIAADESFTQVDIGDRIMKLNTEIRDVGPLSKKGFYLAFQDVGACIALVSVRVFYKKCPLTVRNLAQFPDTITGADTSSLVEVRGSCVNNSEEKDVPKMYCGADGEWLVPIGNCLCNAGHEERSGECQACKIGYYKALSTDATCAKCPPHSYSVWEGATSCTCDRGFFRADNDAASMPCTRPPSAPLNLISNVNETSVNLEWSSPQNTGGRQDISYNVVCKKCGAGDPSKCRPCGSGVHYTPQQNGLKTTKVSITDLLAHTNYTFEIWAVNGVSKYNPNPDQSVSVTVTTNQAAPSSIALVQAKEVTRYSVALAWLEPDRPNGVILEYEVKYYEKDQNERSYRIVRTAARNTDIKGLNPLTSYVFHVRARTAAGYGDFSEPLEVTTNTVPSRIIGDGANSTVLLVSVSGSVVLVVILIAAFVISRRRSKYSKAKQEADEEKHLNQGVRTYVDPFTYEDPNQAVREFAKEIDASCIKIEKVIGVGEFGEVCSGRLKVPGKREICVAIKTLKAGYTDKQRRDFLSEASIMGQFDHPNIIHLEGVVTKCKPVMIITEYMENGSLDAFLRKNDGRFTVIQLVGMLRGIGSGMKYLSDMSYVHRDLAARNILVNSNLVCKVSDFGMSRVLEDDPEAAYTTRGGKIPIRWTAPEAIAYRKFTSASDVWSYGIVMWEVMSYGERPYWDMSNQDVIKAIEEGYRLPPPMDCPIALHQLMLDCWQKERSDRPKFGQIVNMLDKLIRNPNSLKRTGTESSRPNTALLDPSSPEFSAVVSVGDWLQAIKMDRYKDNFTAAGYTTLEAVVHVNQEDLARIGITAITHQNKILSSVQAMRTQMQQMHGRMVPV", "conditions": "read-out: Inhibition rate (%)"}, "ARK5(h)": {"target": "T3, ARK5(h) (Homo sapiens, UniProt O60285)", "T3 construct": "purchased Eurofins (KinaseProfiler)", "T3 sequence (O60285 1-661)": "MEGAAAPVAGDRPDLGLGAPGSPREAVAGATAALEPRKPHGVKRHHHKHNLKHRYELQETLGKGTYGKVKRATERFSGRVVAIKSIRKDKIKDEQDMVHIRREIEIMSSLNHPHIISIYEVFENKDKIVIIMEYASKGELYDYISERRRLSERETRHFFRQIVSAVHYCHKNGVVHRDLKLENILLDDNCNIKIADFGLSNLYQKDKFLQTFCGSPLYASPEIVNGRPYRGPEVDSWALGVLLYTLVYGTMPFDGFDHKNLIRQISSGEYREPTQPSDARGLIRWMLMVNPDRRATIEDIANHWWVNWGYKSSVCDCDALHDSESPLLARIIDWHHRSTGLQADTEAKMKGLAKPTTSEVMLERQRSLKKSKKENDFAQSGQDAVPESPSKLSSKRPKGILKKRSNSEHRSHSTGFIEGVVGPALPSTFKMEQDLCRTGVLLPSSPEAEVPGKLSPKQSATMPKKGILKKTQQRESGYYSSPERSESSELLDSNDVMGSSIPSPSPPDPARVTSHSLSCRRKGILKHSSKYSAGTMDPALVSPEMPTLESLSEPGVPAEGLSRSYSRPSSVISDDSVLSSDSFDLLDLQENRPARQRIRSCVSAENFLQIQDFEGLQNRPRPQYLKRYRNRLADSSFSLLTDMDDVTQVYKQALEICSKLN", "conditions": "read-out: Inhibition rate (%)"}, "ZIPK(h)": {"target": "T4, ZIPK(h) (Homo sapiens, UniProt O43293)", "T4 construct": "purchased Eurofins (KinaseProfiler)", "T4 sequence (O43293 whole entry)": "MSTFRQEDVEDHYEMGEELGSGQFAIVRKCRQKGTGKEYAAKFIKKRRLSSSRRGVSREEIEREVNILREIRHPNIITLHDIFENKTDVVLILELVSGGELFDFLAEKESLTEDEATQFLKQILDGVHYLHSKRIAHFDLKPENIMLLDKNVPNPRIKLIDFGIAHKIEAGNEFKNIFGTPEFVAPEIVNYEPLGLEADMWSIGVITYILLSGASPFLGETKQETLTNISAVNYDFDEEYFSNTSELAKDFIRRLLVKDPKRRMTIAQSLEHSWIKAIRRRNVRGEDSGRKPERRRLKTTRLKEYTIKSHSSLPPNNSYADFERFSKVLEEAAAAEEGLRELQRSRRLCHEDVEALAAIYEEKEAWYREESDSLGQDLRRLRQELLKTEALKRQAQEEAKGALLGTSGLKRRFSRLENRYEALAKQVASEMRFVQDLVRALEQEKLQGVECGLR", "conditions": "read-out: Inhibition rate (%)"}, "CDK3/cyclinE(h)": {"target": "T5, CDK3/cyclinE(h) (Homo sapiens, UniProt Q00526)", "T5 construct": "purchased Eurofins (KinaseProfiler)", "T5 sequence (Q00526 whole entry)": "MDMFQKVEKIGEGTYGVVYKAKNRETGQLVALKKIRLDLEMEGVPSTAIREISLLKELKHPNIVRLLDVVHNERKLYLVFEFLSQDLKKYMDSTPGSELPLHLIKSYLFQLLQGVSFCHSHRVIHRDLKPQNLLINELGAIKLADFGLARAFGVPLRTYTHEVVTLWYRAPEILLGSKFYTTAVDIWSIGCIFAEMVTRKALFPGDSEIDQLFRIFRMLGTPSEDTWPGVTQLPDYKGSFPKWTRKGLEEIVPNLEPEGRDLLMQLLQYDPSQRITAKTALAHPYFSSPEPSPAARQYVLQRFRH", "T5 sequence (P24864 whole entry partner)": "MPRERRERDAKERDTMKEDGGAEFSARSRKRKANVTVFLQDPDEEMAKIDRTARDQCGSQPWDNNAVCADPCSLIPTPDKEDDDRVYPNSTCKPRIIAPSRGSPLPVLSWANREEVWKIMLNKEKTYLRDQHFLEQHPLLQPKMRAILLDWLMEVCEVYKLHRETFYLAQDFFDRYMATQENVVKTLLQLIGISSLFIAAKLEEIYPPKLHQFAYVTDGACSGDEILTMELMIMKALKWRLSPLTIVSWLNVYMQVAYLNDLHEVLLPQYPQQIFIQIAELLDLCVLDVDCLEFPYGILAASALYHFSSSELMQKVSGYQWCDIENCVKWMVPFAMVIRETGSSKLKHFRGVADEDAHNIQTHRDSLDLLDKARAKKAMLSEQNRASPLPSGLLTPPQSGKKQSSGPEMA", "conditions": "read-out: Inhibition rate (%)"}, "FGFR2(h)": {"target": "FGFR2(h) (Homo sapiens, UniProt P21802)", "sequence (P21802 22-821)": "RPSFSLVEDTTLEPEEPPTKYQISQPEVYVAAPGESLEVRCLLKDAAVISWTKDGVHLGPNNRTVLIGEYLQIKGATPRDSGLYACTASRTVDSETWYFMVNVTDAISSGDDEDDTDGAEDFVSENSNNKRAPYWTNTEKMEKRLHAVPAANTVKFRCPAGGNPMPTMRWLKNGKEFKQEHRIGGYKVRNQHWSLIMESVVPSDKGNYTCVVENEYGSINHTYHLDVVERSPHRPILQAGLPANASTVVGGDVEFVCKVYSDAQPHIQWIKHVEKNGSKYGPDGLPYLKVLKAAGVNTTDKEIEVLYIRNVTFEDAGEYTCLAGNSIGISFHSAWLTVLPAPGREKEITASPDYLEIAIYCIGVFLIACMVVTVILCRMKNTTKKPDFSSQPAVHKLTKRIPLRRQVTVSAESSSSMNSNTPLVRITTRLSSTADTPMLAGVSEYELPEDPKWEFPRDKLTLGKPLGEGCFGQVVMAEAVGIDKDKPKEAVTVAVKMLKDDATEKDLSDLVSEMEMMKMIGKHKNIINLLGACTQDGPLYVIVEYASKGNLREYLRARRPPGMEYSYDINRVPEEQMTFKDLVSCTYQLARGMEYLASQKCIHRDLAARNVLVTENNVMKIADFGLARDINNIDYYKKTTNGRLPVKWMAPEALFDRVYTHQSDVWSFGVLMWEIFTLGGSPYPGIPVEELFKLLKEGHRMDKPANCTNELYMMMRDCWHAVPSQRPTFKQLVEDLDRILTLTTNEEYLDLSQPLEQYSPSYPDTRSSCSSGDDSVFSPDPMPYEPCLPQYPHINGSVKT"}, "Tec(h) activated": {"target": "T6, Tec(h) activated (Homo sapiens, UniProt P42680)", "T6 construct": "purchased Eurofins (KinaseProfiler)", "T6 sequence (P42680 1-631)": "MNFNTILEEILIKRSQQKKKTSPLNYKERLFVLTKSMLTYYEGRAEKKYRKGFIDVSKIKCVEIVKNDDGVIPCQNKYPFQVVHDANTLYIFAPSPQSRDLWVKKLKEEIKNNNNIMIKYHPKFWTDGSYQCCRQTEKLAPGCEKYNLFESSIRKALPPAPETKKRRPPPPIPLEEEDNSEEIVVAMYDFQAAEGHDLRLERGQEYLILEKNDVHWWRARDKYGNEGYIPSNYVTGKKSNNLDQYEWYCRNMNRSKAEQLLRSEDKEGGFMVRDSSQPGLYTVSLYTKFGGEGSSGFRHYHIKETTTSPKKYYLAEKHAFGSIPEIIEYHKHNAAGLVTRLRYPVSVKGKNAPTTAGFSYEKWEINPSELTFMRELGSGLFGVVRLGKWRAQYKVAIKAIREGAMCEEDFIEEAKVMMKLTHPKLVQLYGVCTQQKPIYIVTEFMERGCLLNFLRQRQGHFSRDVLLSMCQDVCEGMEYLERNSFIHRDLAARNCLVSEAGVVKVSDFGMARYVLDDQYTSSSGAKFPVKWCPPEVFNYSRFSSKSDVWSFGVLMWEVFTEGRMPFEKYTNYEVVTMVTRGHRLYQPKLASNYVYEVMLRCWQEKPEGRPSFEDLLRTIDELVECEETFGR", "conditions": "read-out: Inhibition rate (%)"}, "SBK1(h)": {"target": "T7, SBK1(h) (Homo sapiens, UniProt Q52WX2)", "T7 construct": "purchased Eurofins (KinaseProfiler)", "T7 sequence (Q52WX2 whole entry)": "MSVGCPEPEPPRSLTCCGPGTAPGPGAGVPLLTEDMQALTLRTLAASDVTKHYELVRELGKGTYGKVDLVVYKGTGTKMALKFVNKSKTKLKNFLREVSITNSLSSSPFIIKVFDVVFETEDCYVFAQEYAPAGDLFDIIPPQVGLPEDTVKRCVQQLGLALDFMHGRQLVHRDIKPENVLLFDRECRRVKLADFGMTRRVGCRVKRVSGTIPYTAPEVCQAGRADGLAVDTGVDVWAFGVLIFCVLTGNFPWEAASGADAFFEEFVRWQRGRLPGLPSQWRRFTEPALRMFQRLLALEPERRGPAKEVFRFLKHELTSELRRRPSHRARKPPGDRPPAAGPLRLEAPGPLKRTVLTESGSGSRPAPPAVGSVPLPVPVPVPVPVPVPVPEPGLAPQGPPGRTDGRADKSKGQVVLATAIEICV", "conditions": "read-out: Inhibition rate (%)"}, "DCAMKL2(h)": {"target": "T8, DCAMKL2(h) (Homo sapiens, UniProt Q8N568)", "T8 construct": "purchased Eurofins (KinaseProfiler)", "T8 sequence (Q8N568 1-766)": "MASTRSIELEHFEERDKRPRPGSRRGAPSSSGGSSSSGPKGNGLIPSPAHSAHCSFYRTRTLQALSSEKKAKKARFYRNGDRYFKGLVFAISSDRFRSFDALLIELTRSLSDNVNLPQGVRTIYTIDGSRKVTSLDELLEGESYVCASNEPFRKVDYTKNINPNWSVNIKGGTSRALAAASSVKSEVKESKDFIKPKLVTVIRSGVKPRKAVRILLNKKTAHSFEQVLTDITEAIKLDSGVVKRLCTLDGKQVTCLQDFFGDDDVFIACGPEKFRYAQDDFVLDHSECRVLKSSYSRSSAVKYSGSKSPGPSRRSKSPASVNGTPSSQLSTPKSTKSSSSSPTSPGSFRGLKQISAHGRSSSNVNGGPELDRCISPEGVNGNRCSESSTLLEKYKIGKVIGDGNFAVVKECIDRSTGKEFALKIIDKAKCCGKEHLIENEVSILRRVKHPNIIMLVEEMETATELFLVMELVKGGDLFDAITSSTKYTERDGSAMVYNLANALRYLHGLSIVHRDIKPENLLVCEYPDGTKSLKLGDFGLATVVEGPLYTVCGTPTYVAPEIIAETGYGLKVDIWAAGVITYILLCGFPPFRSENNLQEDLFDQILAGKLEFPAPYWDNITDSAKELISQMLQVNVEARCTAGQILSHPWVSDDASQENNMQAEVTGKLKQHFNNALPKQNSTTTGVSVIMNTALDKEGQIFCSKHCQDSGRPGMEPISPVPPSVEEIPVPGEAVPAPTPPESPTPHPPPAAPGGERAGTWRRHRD", "conditions": "read-out: Inhibition rate (%)"}},
  "data": [
    {"smiles": "COc1cc(OC)c(Cl)c(-c2ccc3c(NC(=O)c4ccc(N5CCNC(C)(C)C5)cc4)n[nH]c3n2)c1Cl", "note": "[3D185]", "values": [
      {"measurement": "inhibition at 0.01 µM", "setting": "CK1δ(h); 10 nM", "result": -10, "unit": "%"},
      {"measurement": "inhibition at 0.1 µM", "setting": "CK1δ(h); 100 nM", "result": 0, "unit": "%"},
      {"measurement": "inhibition at 1 µM", "setting": "CK1δ(h); 1000 nM", "result": 6, "unit": "%"},
      {"measurement": "inhibition at 0.01 µM", "setting": "EphA4(h); 10 nM", "result": 14, "unit": "%"},
      {"measurement": "inhibition at 0.1 µM", "setting": "EphA4(h); 100 nM", "result": 5, "unit": "%"},
      {"measurement": "inhibition at 1 µM", "setting": "EphA4(h); 1000 nM", "result": 13, "unit": "%"},
      {"measurement": "inhibition at 0.01 µM", "setting": "ARK5(h); 10 nM", "result": 11, "unit": "%"},
      {"measurement": "inhibition at 0.1 µM", "setting": "ARK5(h); 100 nM", "result": 16, "unit": "%"},
      {"measurement": "inhibition at 1 µM", "setting": "ARK5(h); 1000 nM", "result": 13, "unit": "%"},
      {"measurement": "inhibition at 0.01 µM", "setting": "ZIPK(h); 10 nM", "result": -3, "unit": "%"},
      {"measurement": "inhibition at 0.1 µM", "setting": "ZIPK(h); 100 nM", "result": 0, "unit": "%"},
      {"measurement": "inhibition at 1 µM", "setting": "ZIPK(h); 1000 nM", "result": 2, "unit": "%"},
      {"measurement": "inhibition at 0.01 µM", "setting": "CDK3/cyclinE(h); 10 nM", "result": 1, "unit": "%"},
      {"measurement": "inhibition at 0.1 µM", "setting": "CDK3/cyclinE(h); 100 nM", "result": -11, "unit": "%"},
      {"measurement": "inhibition at 1 µM", "setting": "CDK3/cyclinE(h); 1000 nM", "result": -19, "unit": "%"},
      {"measurement": "IC50", "setting": "FGFR2(h); estimated from 372-kinase panel", "result": "< 0.01", "unit": "µM"},
      {"measurement": "inhibition at 0.01 µM", "setting": "FGFR2(h); read-out: Inhibition rate (%)", "result": 93, "unit": "%"},
      {"measurement": "inhibition at 0.1 µM", "setting": "FGFR2(h); read-out: Inhibition rate (%)", "result": 98, "unit": "%"},
      {"measurement": "inhibition at 1 µM", "setting": "FGFR2(h); read-out: Inhibition rate (%)", "result": 100, "unit": "%"},
      {"measurement": "inhibition at 0.01 µM", "setting": "Tec(h) activated; 10 nM", "result": 3, "unit": "%"},
      {"measurement": "inhibition at 0.1 µM", "setting": "Tec(h) activated; 100 nM", "result": 9, "unit": "%"},
      {"measurement": "inhibition at 1 µM", "setting": "Tec(h) activated; 1000 nM", "result": 23, "unit": "%"},
      {"measurement": "inhibition at 0.01 µM", "setting": "SBK1(h); 10 nM", "result": -13, "unit": "%"},
      {"measurement": "inhibition at 0.1 µM", "setting": "SBK1(h); 100 nM", "result": -3, "unit": "%"},
      {"measurement": "inhibition at 1 µM", "setting": "SBK1(h); 1000 nM", "result": -10, "unit": "%"},
      {"measurement": "inhibition at 0.01 µM", "setting": "DCAMKL2(h); 10 nM", "result": 8, "unit": "%"},
      {"measurement": "inhibition at 0.1 µM", "setting": "DCAMKL2(h); 100 nM", "result": 18, "unit": "%"},
      {"measurement": "inhibition at 1 µM", "setting": "DCAMKL2(h); 1000 nM", "result": 28, "unit": "%"}
    ]}
  ]
}
